The values below are quoted from earlier work in patent US20040081632A1, “Novel antiperspirant/deodorant active for no white residue sticks and soft solids” (priority 2002, published 2004).

For the data set the following is noted: neat organic solvent.

In the case of `CC(O)CO` (stereo not drawn) [propylene glycol], the RI was 1.430.

Consider `COCCO` [2 methoxy ethanol], for which the RI is reported as 1.402.

As for 1-methyl 2-propanol, the RI was 1.403. With `CC(O)COC(C)COC(C)CO` (stereo not drawn) [tripropylene glycol], the RI is reported as 1.454. Regarding `COC(C)CCO` (stereo not drawn) [3 methoxy butanol], the RI is recorded as 1.411.

Take `CCOCCO` [2 ethoxy ethanol]: the RI is 1.407.
